Measurements reported in patent US4157396A, “Hydroxamic acid derivatives and medicaments for treatment of urolithiasis and pyelonephrosis comprising such derivatives” (Eisai Co., Ltd., priority 1976, dated 1979).
Read-outs that look alike come from different tables or passages of the source.

Columns and labels:
[1] = Determination of the transfer rate into the urine and calculation of the index; assay type: in vivo, male rats of SD strain; settings: rat, male SD rats, 100 mg/Kg oral, measured as urease inhibitory action in excreted urine; for dose excreted at 6 h: 0-6 hours; for dose excreted at 24 h: 6-24 hours
Procedure: (ii) Determination of the transfer rate into the urine
Transfer rates into the urine of the examination compounds were determined according to the method of Kobashi et al [Refer to Biochemistry (Japan) vol. 44, No. 5, pp. 187-204 (1972) and Yakugaku Zasshi vol. 12, pp. 1564-1572 (1973)] by using the male rats of SD strain having the body weight of about 280 g, administering orally each 100 mg/Kg of the compounds, and measuring the urease inhibitory action in the excreted urine within a specified period of time.
(iii) Calculation of the index
The index was calculated from the resulting values of the above examinations (i) and (ii) according to the following equation: [formula] wherein n is chosen appropriately depending on the value of I50.
The value of the index is referred to as a standard of the urease inhibitory power of the administered examination compound in the urine.
It is seen that the larger the value of the index is, the more effectively the examination compounds transfer into the urine with a form having the urease inhibitory action. Results of the determination

[2] = target: T1, Urease collected and purified from sword beans (Canavalia gladiata) (Canavalia gladiata, UniProt A0AAN9R4W0); assay: Determination of the urease inhibitory action; assay type: biochemical; settings: read-out: 50% inhibitory concentration (M) of urease <I50>
T1 construct: single-chain plant urease, homohexamer by analogy with jack bean urease
T1 sequence (A0AAN9R4W0 entry or part of it): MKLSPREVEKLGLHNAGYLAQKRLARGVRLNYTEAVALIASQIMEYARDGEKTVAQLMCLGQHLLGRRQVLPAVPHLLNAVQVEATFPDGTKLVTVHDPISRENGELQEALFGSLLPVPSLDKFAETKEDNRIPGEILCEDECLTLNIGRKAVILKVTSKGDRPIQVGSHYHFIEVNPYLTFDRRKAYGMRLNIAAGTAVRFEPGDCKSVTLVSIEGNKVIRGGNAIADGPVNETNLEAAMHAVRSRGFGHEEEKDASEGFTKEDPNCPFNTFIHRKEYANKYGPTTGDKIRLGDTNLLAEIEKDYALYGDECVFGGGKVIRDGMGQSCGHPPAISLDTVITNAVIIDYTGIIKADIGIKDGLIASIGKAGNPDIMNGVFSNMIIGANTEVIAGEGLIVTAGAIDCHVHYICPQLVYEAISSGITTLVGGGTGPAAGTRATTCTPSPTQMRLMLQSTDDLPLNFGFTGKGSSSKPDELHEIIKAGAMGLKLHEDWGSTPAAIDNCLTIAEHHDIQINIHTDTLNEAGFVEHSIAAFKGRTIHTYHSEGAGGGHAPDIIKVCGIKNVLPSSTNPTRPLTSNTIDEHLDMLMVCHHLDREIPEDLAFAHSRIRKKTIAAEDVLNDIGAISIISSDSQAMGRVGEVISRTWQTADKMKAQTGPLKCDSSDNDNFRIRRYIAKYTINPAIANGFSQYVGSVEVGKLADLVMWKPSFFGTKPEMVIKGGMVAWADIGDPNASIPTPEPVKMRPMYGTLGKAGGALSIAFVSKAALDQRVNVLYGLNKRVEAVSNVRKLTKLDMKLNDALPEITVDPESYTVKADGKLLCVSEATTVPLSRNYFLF
Procedure: (i) Determination of the urease inhibitory action
Urease was collected and purified from sword beans (Canavalia gladiata) and mol concentrations of the examination compounds for inhibiting 50% of the activity of the urease were measured by the method of Kobashi et al [Refer to Biochim. Biophys. acta 227, 429-441 (1971)].

Proteus mirabilis OM-1 [3] = assay: Arrestment action to alkalization of the urine; assay type: cell-based; settings: normal human urine inoculated with Proteus mirabilis OM-1, 37° C.
Procedure: (§1) Solutions to be examined were prepared by collecting each 18 ml of fresh urine from a normal human, and adding the respective examination compounds to each of the urine to make their concentration of 10^-3 M in one group, and of 2×10^-4 in the other group. On the other hand, same solutions containing no examination compounds were prepared as blanks.
Proteus mirabilis OM-1, a urease-producing bacterium, was inoculated in said solutions, so that the number of the bacteria may amount to 10^6 cell/ml, and cultured at 37° C. […] The arrestment ratio of calculus formation was calculated from said values.

Proteus mirabilis OM-1 [4] = assay: Arrestment action to the calculus formation in the urine; assay type: cell-based; settings: OM1, human urine with Proteus mirabilis OM-1, 8 hours, read-out: Arrest ratio to calculus formation (%), 8 hours; for inhibition at 200 µM: 2×10^-4 M; for inhibition at 1000 µM: 10^-3 M
[5] = Acute toxicity (LD50), oral; settings: rat, in vivo
Excerpt: The examination was achieved by orally administering the examination compounds into male rats of SD strain weighing about 230 g, respectively.

Proteus mirabilis OM-1 [6] = assay: Arrestment action to the calculus formation in the urine; assay type: cell-based; settings: OM1, human urine with Proteus mirabilis OM-1, 24 hours, read-out: Arrest ratio to calculus formation (%), 24 hours; for inhibition at 200 µM: 2×10^-4 M; for inhibition at 1000 µM: 10^-3 M
Procedure: as §1
Proteus mirabilis OM-1, a urease-producing bacterium, was inoculated in said solutions, so that the number of the bacteria may amount to 10^6 cell/ml, and cultured at 37° C. After […] and 24 hours of the culture time, pH values of the solutions and amounts by weight of the formed and deposited calculus were measured. The arrestment ratio of calculus formation was calculated from said values.

[7] = Examination of urine (Labstix test paper, amount, pH); assay type: in vivo, male SD strain rats; set-up: key to Protein in urine, hours 0-6 / Protein in urine, hours 6-24 / Glucose in urine, hours 0-6 / Glucose in urine, hours 6-24 / Ketone substances in urine, hours 0-6 / Ketone substances in urine, hours 6-24 / Occult blood in urine, hours 0-6 / Occult blood in urine, hours 6-24: (-); (±); (+); (++); (+++); settings: 100 mg/Kg oral, male SD rats; for Ketone substances in urine, hours 0-6 / Occult blood in urine, hours 0-6 / Protein in urine, hours 0-6 / Glucose in urine, hours 6-24 / Ketone substances in urine, hours 6-24 / Occult blood in urine, hours 6-24 / Protein in urine, hours 6-24 / Glucose in urine, hours 0-6: Labstix; for Ketone substances in urine, hours 0-6 / Occult blood in urine, hours 0-6 / Protein in urine, hours 0-6: 0-6 hours; for Glucose in urine, hours 6-24 / Ketone substances in urine, hours 6-24 / Occult blood in urine, hours 6-24 / Protein in urine, hours 6-24: 6-24 hours; for Glucose in urine, hours 0-6: first collection period; for Amount and pH value of the urine: compared with the group given no examination compound
Procedure: To 5 male SD strain rats having the body weight of about 280 g in the respective groups, the examination compounds were forcedly and orally administered in a ratio of 100 mg/Kg in each time.
Natural urinations were respectively recovered 6 hours and 6-24 hours from the administration. As for control group wherein no examination compound is administered, natural urination was similarly recovered. Amount and pH value of the recovered urine were measured. Further, qualitative reaction concerning the respective items of protein, glucose, ketone substances, and occult blood in the urine was carried out by using Labstix text paper (manufactured and sold by Ames Company). Judgement was ranked as five levels, that is, (-), (±), (+), (++) and (+++).

[8] = Acute toxicity: observation of the general conditions; assay type: in vivo; settings: for Number of death examples, Female / Number of death examples, Male: rat, in vivo
Excerpt: (§2) Eight week-old rats of SD strain (body weight: about 230 g for male and about 160 g for female) were used as the subject animals. The examination compounds were forcedly and orally administered in the following dosages, wherein 14 rats (7 male rats and 7 female rats, respectively) were used.

[9] = Acute toxicity: remarks on the dissection; assay type: in vivo, rats of SD strain; settings: for Remarks on the dissection, death examples: macroscopic observation at the time of death; for Remarks on the dissection, survivor example: rat, in vivo
Procedure: as §2
The dissection was performed, for the death examples, at the time of death and, for the survivor example, after killing by discharging the blood when the observation of the general conditions was finished. The organs in the thoracic cavity and the abdominal cavity were closely observed with a macroscopic manner.

[10] = single forced oral dose, SD rats, 7 male and 7 female per dose
[11] = single forced oral dose, SD rats, all administration groups

SMILES	dose excreted at 6 h [1] [%]	dose excreted at 24 h [1] [%]	IC50 [2] [M]	pH value, time 8 hours (Proteus mirabilis OM-1 [3]; 2×10^-4 M)	pH value, time 24 hours (Proteus mirabilis OM-1 [3]; 2×10^-4 M)	pH value, time 0 hour (Proteus mirabilis OM-1 [3]; 10^-3 M)	pH value, time 8 hours (Proteus mirabilis OM-1 [3]; 10^-3 M)	pH value, time 24 hours (Proteus mirabilis OM-1 [3]; 10^-3 M)	inhibition at 200 µM (Proteus mirabilis OM-1 [4]) [%]	inhibition at 1000 µM (Proteus mirabilis OM-1 [4]) [%]	inhibition at 200 µM (Proteus mirabilis OM-1 [6]) [%]	inhibition at 1000 µM (Proteus mirabilis OM-1 [6]) [%]	pH value, time 0 hour (Proteus mirabilis OM-1 [3]; 2×10^-4 M)	Ketone substances in urine, hours 0-6 [7]	Occult blood in urine, hours 0-6 [7]	Protein in urine, hours 0-6 [7]	Glucose in urine, hours 6-24 [7]	Ketone substances in urine, hours 6-24 [7]	Occult blood in urine, hours 6-24 [7]	Protein in urine, hours 6-24 [7]	further results
CC(=O)Nc1cccc(C(=O)NCC(=O)NO)c1 [Compound M, 2-(meta-acetylaminobenzamide)-acetohydroxamic acid]	15	0.6	2e-06	7.96±0.02	8.70±0.00	6.78±0.02	6.79±0.01	7.08±0.03	80.1 ± 6.7	91.5 ± 5.1	38.8 ± 8	81.4 ± 5.6									LD50 ([5]; oral, male SD rats about 230 g): > 5000 mg/kg
COc1cccc(C(=O)NCC(=O)NO)c1 [Compound B, 2-(meta-methoxy-benzamide)-acetohydroxamic acid]	12.3	1.5	1.2e-06	6.84±0.02	8.71±0.01	6.47±0.01	5.41±0.01	6.52±0.003	87.5 ± 1.6	82 ± 9.2	26.2 ± 5.7	79.1 ± 8.2	6.45±0.01	-	-	+	-	-	-	±	Glucose in urine, hours 0-6 [7]: -; Amount and pH value of the urine [7]: there was not found the difference; Number of death examples, Female [8]: 3/7; Number of death examples, Male [8]: 2/7; Symptom [8, 10]: Hair raising; Baited amount [8, 11]: No change; LD50 ([5]; po): > 5000 mg/kg; Remarks on the dissection, death examples [9]: Erosion was observed; Remarks on the dissection, survivor example [9]: No abnormality
O=C(CNC(=O)c1ccco1)NO [Compound R, 2-(2-furoilamino)-acetohydroxamic acid]	15.5	0.68	1.3e-06	6.65±0.02	8.52±0.01	6.46±0.00	5.42±0.01	6.98±0.02	85.6 ± 4.7	84.1 ± 5.5	28.4 ± 5.1	72.3 ± 8.3	6.44±0.01								LD50 ([5]; oral, male SD rats about 230 g): > 5000 mg/kg
COc1ccc(C(=O)NCC(=O)NO)cc1 [Compound A, 2-(para-methoxy-benzamide)-acetohydroxamic acid]	12	0.83	1.7e-06	6.56±0.02	8.38±0.02	6.40±0.00	5.40±0.003	5.58±0.05	99 ± 1	96.2 ± 0.4	32 ± 3.4	76.6 ± 6		-	-	+	-	-	-	±	Glucose in urine, hours 0-6 [7]: -; Amount and pH value of the urine [7]: there was not found the difference; Number of death examples, Female [8]: 0/7; Number of death examples, Male [8]: 1/7; Behaviour [8, 10]: No change; Symptom [8, 10]: No change; Baited amount [8, 11]: No change; LD50 ([5]; po): > 5000 mg/kg; Remarks on the dissection, death examples [9]: Erosion was observed; Remarks on the dissection, survivor example [9]: No abnormality
O=C(CNC(=O)c1ccc(Cl)cc1)NO [Control compound I, 2-(para-chloro-benzamide)-acetohydroxamic acid, reference compound]	1	0.5	1e-06	7.30±0.00	8.51±0.01	6.75±0.003	6.64±0.02	7.03±0.01	77.2 ± 9.1	69.7 ± 9	30.6 ± 13.9	82.5 ± 8.5	6.79±0.01	++	-	++	+++	+++	-	+++	Glucose in urine, hours 0-6 [7]: +++; Amount and pH value of the urine [7]: there was not found the difference; Number of death examples, Female [8]: 0/7; Number of death examples, Male [8]: 3/7; Symptom [8, 10]: arantic change; Baited amount [8, 11]: Decrease; Body Weight decrease on average [8, 11]: 10%; LD50 ([5]; po): > 5000 mg/kg; Remarks on the dissection, death examples [9]: Petechiae and ulcer; Remarks on the dissection, survivor example [9]: Blacking change and hypertrophy of spleen
